Experimental data from US4690925A, “(2-Oxo-1,2,3,5-tetrahydroimidazo-[2,1-B]quinazolinyl) oxyalkylamides properties having phosphodiosterase inhibiting” (Syntex (U.S.A.) Inc., priority 1985, dated 1987).

Key:
[1] = target: T1, Human platelet cyclic AMP phosphodiesterase (Homo sapiens, UniProt Q14432); assay: Cyclic AMP phosphodiesterase assay, human platelet enzyme (Table I); assay type: biochemical; conditions: for IC50: 1 μM cyclic AMP as substrate, soluble enzyme from human platelets, read-out: Human Platelet IC50 (inhibition of cyclic AMP phosphodiesterase); for Relative Potency: relative to theophylline, which is assigned a value of 1 on human platelet phosphodiesterase
T1 construct: from tissue; host or cells: human platelets from donors, soluble fraction after freeze-thaw and hypotonic lysis
Description: (§1) The inhibition of cyclic AMP phosphodiesterase activity by the subject compounds was assayed by the method of Filburn and Karn, Analyt. Biochem., 52: 505-516 (1973), using 1 μM cyclic AMP as the substrate. Human platelet cyclic AMP phosphodiesterase was obtained from human donors. Platelets were isolated and washed by centrifugation, the membranes ruptured by a sequential freeze-thaw procedure and hypotonic lysis and the soluble enzyme isolated by high speed centrifugation. The enzyme was stored in aliquots at -20° C.
(§2) This table contains the IC50 values for human platelet phosphodiesterase and IC25 values for rat heart phosphodiesterase.

Soluble dog heart PDE = assay: Cyclic AMP phosphodiesterase inhibition, soluble dog heart PDE (Table I); assay type: biochemical; conditions: soluble dog heart PDE (footnote a)
Description: as §1, §2
^a Soluble dog heart PDE

Lewis Lung Carcinoma = assay: Antimetastatic activity against Lewis Lung Carcinoma (spontaneous metastases) (Table III); assay type: in vivo, mice (female, C57B1/6); conditions: 5 mg/kg oral, every other day, 20 to 21 days
Description: Mice (female, C57B1/6, 16-18 g) were inoculated subcutaneously between the inguinal and axillary areas with 0.2 ml of a freshly prepared tumor brei. Control mice were treated with vehicle. Other mice were treated orally with test compound in suspension in 0.5% carboxymethylcellulose (CMC). Treatments were initiated one day after tumor implanation, and continued every other day throughout the experiment. 20 to 21 days after implantation of the tumor, mice were sacrificed, the primary tumor was weighed, and the number of lung metastases was determined by counting under a dissecting microscope.

Soluble rat heart PDE = assay: Cyclic AMP phosphodiesterase inhibition, soluble rat heart PDE (Table I); assay type: biochemical; conditions: soluble rat heart PDE (footnote b)
Description: as §1, §2
^b Soluble rat heart PDE

Mongrel dogs = assay: Inotropic activity in anesthetized mongrel dogs (Table II); assay type: in vivo, dog; conditions: 1 mg/kg i.v., suspended in carboxymethylcellulose, vagotomized dogs
Description: Mongrel dogs were anesthetized intravenously with 35 mg/kg sodium pentobarbital and supplemented as needed. Blood pressure was measured with a Statham pressure transducer via a cannula inserted from a femoral artery into the abdominal aorta. Heart rate was recorded by a cardiotachometer from a lead II electrocardiogram. Right ventricular contractile force was recorded from a Walton-Brodie strain gauge sutured to the right ventricle following a midsternal thoracotomy. A Harvard respirator was used to ventilate the dogs with room air through an endotracheal tube. Each dog was bilaterally vagotomized. Following a midline laparotomy, a cannula was sutured into the duodenum for intraduodenal administration of test compound. A femoral vein was cannulated for administration of isoproterenol. All data were recorded on a Beckman R611 Dynograph.
To assess the responsiveness of each dog, isoproterenol was given intravenously at half-log interval doses from 0.007 to 6.67 μg/kg. The test compound was then administered intravenously at 1 mg/kg.

T1 sequence (Q14432 whole entry): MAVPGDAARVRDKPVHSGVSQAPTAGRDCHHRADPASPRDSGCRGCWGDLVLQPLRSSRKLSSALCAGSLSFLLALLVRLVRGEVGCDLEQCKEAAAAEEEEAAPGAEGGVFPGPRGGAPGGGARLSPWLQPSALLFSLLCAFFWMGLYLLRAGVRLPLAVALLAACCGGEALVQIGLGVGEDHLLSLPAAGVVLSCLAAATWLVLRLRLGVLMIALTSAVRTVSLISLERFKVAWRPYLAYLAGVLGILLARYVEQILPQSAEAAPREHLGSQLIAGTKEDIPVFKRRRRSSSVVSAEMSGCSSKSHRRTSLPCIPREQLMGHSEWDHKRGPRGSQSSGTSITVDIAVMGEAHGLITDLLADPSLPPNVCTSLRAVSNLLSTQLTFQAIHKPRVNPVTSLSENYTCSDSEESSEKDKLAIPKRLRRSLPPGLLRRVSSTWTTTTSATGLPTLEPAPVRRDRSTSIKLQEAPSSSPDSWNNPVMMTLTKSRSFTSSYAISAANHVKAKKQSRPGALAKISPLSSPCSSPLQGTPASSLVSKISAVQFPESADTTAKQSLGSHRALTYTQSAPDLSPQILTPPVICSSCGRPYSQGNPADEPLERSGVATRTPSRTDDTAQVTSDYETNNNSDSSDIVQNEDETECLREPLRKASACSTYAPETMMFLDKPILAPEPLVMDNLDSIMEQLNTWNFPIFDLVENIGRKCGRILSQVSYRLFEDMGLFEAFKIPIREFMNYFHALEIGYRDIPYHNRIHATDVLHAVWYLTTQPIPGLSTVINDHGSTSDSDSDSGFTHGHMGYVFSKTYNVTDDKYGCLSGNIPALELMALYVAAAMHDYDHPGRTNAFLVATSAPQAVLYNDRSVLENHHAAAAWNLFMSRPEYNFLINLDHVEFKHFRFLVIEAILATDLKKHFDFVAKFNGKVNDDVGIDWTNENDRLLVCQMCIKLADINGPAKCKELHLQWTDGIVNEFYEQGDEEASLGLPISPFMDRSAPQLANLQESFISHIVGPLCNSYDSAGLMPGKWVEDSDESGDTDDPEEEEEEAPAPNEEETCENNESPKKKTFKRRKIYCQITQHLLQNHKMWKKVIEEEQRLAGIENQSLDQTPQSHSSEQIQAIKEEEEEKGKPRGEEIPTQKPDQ

Structure (SMILES) | IC50 [1] [nM] | Relative Potency [1] | Heart IC25 (inhibition of cyclic AMP phosphodiesterase), soluble dog heart PDE (Soluble dog heart PDE) [nM] | Number of Pulmonary Metastases, Range (Lewis Lung Carcinoma; control range 0-29) | Number of Pulmonary Metastases, Median (Lewis Lung Carcinoma; p < 0.05, control median 5) | Heart IC25 (inhibition of cyclic AMP phosphodiesterase), soluble rat heart PDE (Soluble rat heart PDE) [nM] | Blood Pressure, peak effect (Mongrel dogs) | Heart Rate, peak effect (Mongrel dogs) | Rt. Ventricular Contractile Force, peak effect (Mongrel dogs)
NC(=O)CN(C(=O)CCCOc1ccc2c(c1)CN1CC(=O)NC1=N2)C1CCCCC1 [2-(N-cyclohexyl-4-(2-oxo-1,2,3,5-tetrahydroimidazo[2,1-b]quinazolin-7-yl)oxybutyramidyl)acetamide] | 11 | 24,500 | 100 | – | – | – | – | – | –
O=C(O)CN(C(=O)CCCOc1ccc2c(c1)CN1CC(=O)NC1=N2)C1CCCCC1 [2-(N-cyclohexyl-4-(2-oxo-1,2,3,5-tetrahydroimidazo[2,1-b]quinazolin-7-yl)oxybutyramidyl)acetic acid] | 5 | 54,000 | – | 0-11 | 0 | 100 | 32 % of Max. Isoproterenol | 30 % of Max. Isoproterenol | 33 % of Max. Isoproterenol
COC(=O)CN(C(=O)CCCOc1ccc2c(c1)CN1CC(=O)NC1=N2)C1CCCCC1 [Methyl 2-(N-cyclohexyl-4-(2-oxo-1,2,3,5-tetrahydroimidazo[2,1-b]quinazolin-7-yl)oxybutyramidyl)acetate] | 2 | 135,000 | 10.0 | – | – | – | – | – | –
